The values below come from EPA's ToxValDB 9.5 (doi:10.2903/j.efsa.2011.2334).

One data set deals with Anas platyrhynchos. Particulars: short-term; oral; feed; mortality.
The next data set relates to Lepomis macrochirus. The conditions noted are these: acute; duration: 96 hours; mortality.
The subject of another data set is Aleochara bilineata. Particulars: chronic/long-term; duration: 28 days; reproduction.
The next data set concerns Colinus virginianus. Particulars: acute; oral; mortality.
A further data set concerns Canidae. Particulars: oral, gavage, Dog Other.
A further data set deals with Oncorhynchus mykiss. The conditions noted are these: acute; duration: 96 hours; mortality.

In brackets after ≈: the same amount, converted by molar mass.

Regarding `CNC(=S)[S-].[Na+]` [Metam-sodium], the LC50 with Anas platyrhynchos is greater than 324 mg/kg-day; in the data set on Lepomis macrochirus, greater than 0.175 µg/mL. The same compound showed an LEL with Aleochara bilineata of 608000 g/ha. Further, the LD50 with Colinus virginianus stood at 211 mg/kg-day. Also, the no observed adverse effect level (NOAEL) (commonly the highest tested level that showed no adverse finding) stood at 0.1 mg/kg-day with Canidae (chronic, duration: 1 years, M/F, hematological) and 10 mg/kg-day with Rattus norvegicus (developmental, F, development).
As to `CN=C=S` [Methyl isothiocyanate], the LC50 with Anas platyrhynchos was greater than 183 mg/kg-day; in the data set on Oncorhynchus mykiss, 0.0531 µg/mL (≈ 0.726 µM). The LD50 in the data set on Colinus virginianus worked out at 119 mg/kg-day; with Rattus norvegicus (acute, mortality) it was 147 mg/kg-day. Also, the NOAEL was 0.4 mg/kg-day in the data set on Canidae (subchronic, duration: 90 days, body weight); 0.44 mg/kg-day with Rattus norvegicus (chronic, duration: 2 years, oral, drinking water, hematological); 3 mg/kg-day in the data set with Rattus norvegicus (repeat dose other, oral, gavage, body weight).
